Data taken from ChEMBL document CHEMBL1129830, “A convenient synthesis of pseudoceratidine and three analogs for biological evaluation” (1997).
≈ marks a conversion by molar mass, not a printed value.

Legend:
Assay type in all cases: functional
Escherichia coli = assay: Compound was evaluated for minimal inhibitory concentration against Escherichia coli
Pseudomonas aeruginosa [1] = assay: Compound was evaluated for minimal inhibitory concentration against Pseudomonas aeruginosa
Serratia liquefaciens [2] = assay: Compound was evaluated for minimal inhibitory concentration against Serratia liquefaciens
Staphylococcus aureus = assay: Compound was evaluated for minimal inhibitory concentration against Staphylococcus aureus
Listeria monocytogenes = assay: Compound was evaluated for minimal inhibitory concentration against Listeria monocytogenes
Serratia liquefaciens [3] = assay: Compound was evaluated for minimal inhibitory concentration against Serratia liquefaciens; Growth delayed by concentrations >= 100 ug/ml
Pseudomonas aeruginosa [4] = assay: Compound was evaluated for minimal inhibitory concentration against Pseudomonas aeruginosa; Growth delayed by concentrations >= 50 ug/ml and almost totally inhibited by 500 ug/ml
Serratia liquefaciens [5] = assay: Compound was evaluated for minimal inhibitory concentration against Serratia liquefaciens; Growth delayed by concentrations >= 50 ug/ml and almost totally inhibited by 500 ug/ml

Row | MIC (Escherichia coli) | MIC (Pseudomonas aeruginosa [1]) | MIC (Serratia liquefaciens [2]) | MIC (Staphylococcus aureus) | MIC (Listeria monocytogenes) | MIC (Serratia liquefaciens [3]) | MIC (Pseudomonas aeruginosa [4]) | MIC (Serratia liquefaciens [5]) | SMILES
1 | 250 µg/mL (≈ 511 µM) | > 500 µg/mL | > 500 µg/mL | 100 µg/mL (≈ 204 µM) | 250 µg/mL (≈ 511 µM) |  |  |  | O=C(NCCCCNCCCNC(=O)c1cc(Br)c[nH]1)c1cc(Br)c[nH]1
2 | 50 µg/mL (≈ 79 µM) | 100 µg/mL (≈ 158 µM) |  | 10 µg/mL (≈ 15.8 µM) | 10 µg/mL (≈ 15.8 µM) | > 500 µg/mL |  |  | O=C(NCCCNCCCNC(=O)c1cc(Br)c(Br)[nH]1)c1cc(Br)c(Br)[nH]1
3 | 100 µg/mL (≈ 154 µM) |  |  | 50 µg/mL (≈ 77.2 µM) | 50 µg/mL (≈ 77.2 µM) |  | > 500 µg/mL | > 500 µg/mL | O=C(NCCNCCNCCNC(=O)c1cc(Br)c(Br)[nH]1)c1cc(Br)c(Br)[nH]1
4 | 50 µg/mL (≈ 77.3 µM) | 250 µg/mL (≈ 386 µM) | > 500 µg/mL | 5 µg/mL (≈ 7.73 µM) | 5 µg/mL (≈ 7.73 µM) |  |  |  | O=C(NCCCCNCCCNC(=O)c1cc(Br)c(Br)[nH]1)c1cc(Br)c(Br)[nH]1
